The source of these data is patent US10092570B2 (Incyte Corporation, priority 2011, dated 2018).

The structures appear in SMILES notation. Where a name gives a salt, the structure may show the parent alone. A value given as a limit tells only on which side of the number the result lay.

In this assay the target is PI3Kδ (p110δ/p85α) (Homo sapiens (Human), UniProt O00329). Description: Example A3: PI3Kδ scintillation proximity assay. Type of assay: biochemical. The following applies: for IC50: scintillation proximity assay, 20 μM ATP, 4 nM PI3Kδ, read-out: PI3Kδ SPA IC50. As to the method:
[γ-^33P]ATP (10 mCi/mL) was purchased from Perkin-Elmer (Waltham, Mass.). […] PI3Kδ (p110δ/p85α) was purchased from Millipore (Bedford, Mass.). ATP, MgCl2, DTT, EDTA, MOPS and CHAPS were purchased from Sigma-Aldrich (St. Louis, Mo.). Wheat Germ Agglutinin (WGA) YSi SPA Scintillation Beads was purchased from GE healthcare life sciences (Piscataway, N.J.).
The kinase reaction was conducted in polystyrene 384-well matrix white plate from Thermo Fisher Scientific in a final volume of 25 μL. Inhibitors were first diluted serially in DMSO and added to the plate wells before the addition of other reaction components. The final concentration of DMSO in the assay was 0.5%. The PI3K assays were carried out at room temperature in 20 mM MOPS, pH 6.7, 10 mM MgCl2, 5 mM DTT and CHAPS 0.03%. Reactions were initiated by the addition of ATP, the final reaction mixture consisted of 20 μM PIP2, 20 μM ATP, 0.2 μCi [γ-^33P] ATP, 4 nM PI3Kδ. […] 25 mM EDTA, 400 μM ATP. The final concentration of SPA beads was 1.0 mg/mL. After the plate sealing, plates were shaken overnight at room temperature and centrifuged at 1800 rpm for 10 minutes, the radioactivity of the product was determined by scintillation counting on Topcount (Perkin-Elmer). IC50 determination was performed by fitting the curve of percent control activity versus the log of the inhibitor concentration using the GraphPad Prism 3.0 software.
(In a scintillation proximity assay essentially only radioactivity close to the scintillant gives light.)

Sequence of PI3Kδ (p110δ/p85α) (O00329 whole entry): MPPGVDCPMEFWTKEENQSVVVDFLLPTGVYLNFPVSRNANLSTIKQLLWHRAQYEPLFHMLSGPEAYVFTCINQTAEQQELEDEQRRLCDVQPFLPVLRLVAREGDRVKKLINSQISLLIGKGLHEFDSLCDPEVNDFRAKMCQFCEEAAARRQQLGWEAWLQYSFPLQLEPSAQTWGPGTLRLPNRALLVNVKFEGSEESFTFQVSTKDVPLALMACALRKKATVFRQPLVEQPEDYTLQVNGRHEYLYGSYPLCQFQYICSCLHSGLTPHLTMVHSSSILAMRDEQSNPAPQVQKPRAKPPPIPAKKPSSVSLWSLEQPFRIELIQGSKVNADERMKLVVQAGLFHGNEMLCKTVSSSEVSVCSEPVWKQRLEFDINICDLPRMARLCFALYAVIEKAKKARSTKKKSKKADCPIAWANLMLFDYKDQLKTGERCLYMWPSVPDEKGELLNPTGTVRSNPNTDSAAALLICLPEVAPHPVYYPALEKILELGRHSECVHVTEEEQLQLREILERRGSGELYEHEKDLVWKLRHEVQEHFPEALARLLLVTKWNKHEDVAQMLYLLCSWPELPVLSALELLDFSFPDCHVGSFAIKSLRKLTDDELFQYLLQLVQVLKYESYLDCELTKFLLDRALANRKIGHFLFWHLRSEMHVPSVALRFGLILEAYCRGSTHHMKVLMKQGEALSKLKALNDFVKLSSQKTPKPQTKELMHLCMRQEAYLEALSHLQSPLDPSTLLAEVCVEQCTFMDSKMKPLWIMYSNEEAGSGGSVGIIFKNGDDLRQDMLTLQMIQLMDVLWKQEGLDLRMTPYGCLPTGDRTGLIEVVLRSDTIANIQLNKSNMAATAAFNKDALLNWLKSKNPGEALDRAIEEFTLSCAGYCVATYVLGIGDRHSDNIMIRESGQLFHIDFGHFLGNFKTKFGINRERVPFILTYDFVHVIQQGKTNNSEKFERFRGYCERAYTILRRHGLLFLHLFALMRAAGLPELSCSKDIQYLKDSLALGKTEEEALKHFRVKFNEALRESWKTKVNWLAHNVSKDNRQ
Sequence of PI3Kδ (p110δ/p85α) (P27986 whole entry partner): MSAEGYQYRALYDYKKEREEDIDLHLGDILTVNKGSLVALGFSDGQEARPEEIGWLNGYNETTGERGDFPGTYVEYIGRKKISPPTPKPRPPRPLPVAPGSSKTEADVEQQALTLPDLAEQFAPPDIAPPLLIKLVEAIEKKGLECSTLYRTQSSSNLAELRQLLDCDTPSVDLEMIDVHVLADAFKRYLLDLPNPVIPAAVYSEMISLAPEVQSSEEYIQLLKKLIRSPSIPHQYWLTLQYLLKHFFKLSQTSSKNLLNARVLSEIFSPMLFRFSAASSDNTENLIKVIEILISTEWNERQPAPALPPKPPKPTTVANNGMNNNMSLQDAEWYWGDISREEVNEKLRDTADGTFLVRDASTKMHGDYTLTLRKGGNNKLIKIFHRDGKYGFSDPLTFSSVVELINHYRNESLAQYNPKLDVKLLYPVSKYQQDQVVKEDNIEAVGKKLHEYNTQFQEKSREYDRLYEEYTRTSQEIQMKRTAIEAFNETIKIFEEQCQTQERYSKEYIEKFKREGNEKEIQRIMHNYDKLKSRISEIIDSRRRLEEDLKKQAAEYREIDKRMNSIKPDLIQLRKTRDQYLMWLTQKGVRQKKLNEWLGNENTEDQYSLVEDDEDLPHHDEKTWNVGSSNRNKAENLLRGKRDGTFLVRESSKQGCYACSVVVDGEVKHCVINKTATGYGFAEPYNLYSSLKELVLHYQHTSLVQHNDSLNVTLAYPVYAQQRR

As usually defined, the IC50 is the point on the concentration scale where inhibition reaches its midpoint. With `COc1c(C(C)n2nc(C)c3c(N)ncnc32)cc(Cl)c(C)c1C1CN(C(CO)C(F)(F)F)C1` (stereo not drawn) [Example 113, 2-(3-{3-[1-(4-Amino-3-methyl-1H-pyrazolo[3,4-d]pyrimidin-1-yl)ethyl]-5-chloro-2-methoxy-6-methylphenyl}azetidin-1-yl)-3,3,3-trifluoropropan-1-ol], the IC50 was < 10 nM.

Consider `CCOc1c(C(C)n2nc(-c3ccc(C(=O)NC)nc3)c3c(N)ncnc32)cc(Cl)c(C)c1-c1ccc(C(=O)N(C)C)nc1` (racemic) [Example 59, 5-{3-[1-(4-amino-3-{6-[(methylamino)carbonyl]pyridin-3-yl}-1H-pyrazolo[3,4-d]pyrimidin-1-yl)ethyl]-5-chloro-2-ethoxy-6-methylphenyl}-N,N-dimethylpyridine-2-carboxamide tris(trifluoroacetate)], for which the IC50 is < 10 nM.

On to `COc1c(C(C)n2nc(C)c3c(N)ncnc32)cc(Cl)c(C)c1C1CN(C(=O)[C@H](C)O)C1` (single isomer, unassigned) [Example 118], for which the IC50 was < 10 nM.

Regarding `CCOc1c(C(C)n2nc(C)c3c(N)ncnc32)cc(Cl)c(C#N)c1-c1ccc(C(C)(C)O)nc1` (racemic) [Example 316, 4-[1-(4-amino-3-methyl-1H-pyrazolo[3,4-d]pyrimidin-1-yl)ethyl]-6-chloro-3-ethoxy-2-[6-(1-hydroxy-1-methylethyl)pyridin-3-yl]benzonitrile], the IC50 is < 10 nM.

`CCOc1c(C(C)n2nc(C)c3c(N)ncnc32)cc(Cl)c(C#N)c1C1CN(C2CCOCC2)C1` (single isomer, unassigned) [Example 229, 4-[1-(4-Amino-3-methyl-1H-pyrazolo[3,4-d]pyrimidin-1-yl)ethyl]-6-chloro-3-ethoxy-2-[1-(tetrahydro-2H-pyran-4-yl)azetidin-3-yl]benzonitrile]: the IC50 was < 10 nM.

For the molecule `CCOc1c(C(C)n2nc(C)c3c(N)ncnc32)cc(Cl)c(C#N)c1N1CC(C#N)C1` (racemic) [Example 342, 1-{3-[1-(4-amino-3-methyl-1H-pyrazolo[3,4-d]pyrimidin-1-yl)ethyl]-5-chloro-6-cyano-2-ethoxyphenyl}azetidine-3-carbonitrile], the concentration for half-maximal inhibition (IC50) is < 10 nM.

On to `CCNC(=O)c1c(C)c(Cl)cc(C(C)n2nc(-c3ccc4cn[nH]c4c3)c3c(N)ncnc32)c1OCC` (racemic) [Example 92, 3-{1-[4-Amino-3-(1H-indazol-6-yl)-1H-pyrazolo[3,4-d]pyrimidin-1-yl]ethyl}-5-chloro-2-ethoxy-N-ethyl-6-methylbenzamide], for which the 50% inhibitory concentration (IC50) is < 10 nM.

As for `COc1c(C(C)n2nc(C)c3c(N)ncnc32)cc(Cl)c(C)c1-c1cnn(C2CCN(C)CC2)c1` (single isomer, unassigned) [Example 181, 1-(1-(5-Chloro-2-methoxy-4-methyl-3-(1-(1-methylpiperidin-4-yl)-1H-pyrazol-4-yl)phenyl)ethyl)-3-methyl-1H-pyrazolo[3,4-d]pyrimidin-4-amine], the IC50 was < 10 nM.

With `COc1c(C(C)n2nc(C(F)F)c3c(N)ncnc32)cc(C#N)c(C)c1C1CN(C(C)=O)C1` (racemic) [Example 138, 3-(1-Acetylazetidin-3-yl)-5-{1-[4-amino-3-(difluoromethyl)-1H-pyrazolo[3,4-d]pyrimidin-1-yl]ethyl}-4-methoxy-2-methylbenzonitrile], the IC50 was < 10 nM.

As for `CCOc1c(C(C)n2nc(C)c3c(N)ncnc32)cc(Cl)c(C#N)c1C1CN(C(C)(C)CO)C1` (single isomer, unassigned) [Example 237, 4-[1-(4-Amino-3-methyl-1H-pyrazolo[3,4-d]pyrimidin-1-yl)ethyl]-6-chloro-3-ethoxy-2-[1-(2-hydroxy-1,1-dimethylethyl)azetidin-3-yl]benzonitrile], the IC50 was < 10 nM.

Turning to `CNC(=O)[C@H](C)N1CC(c2c(C)c(C#N)cc(C(C)n3nc(C(F)F)c4c(N)ncnc43)c2OC)C1` (stereo partly drawn) [Example 134, (2S)-2-[3-(3-{1-[4-Amino-3-(difluoromethyl)-1H-pyrazolo[3,4-d]pyrimidin-1-yl]ethyl}-5-cyano-2-methoxy-6-methylphenyl)azetidin-1-yl]-N-methylpropanamide], the half-inhibitory concentration (IC50) was < 10 nM.

On to `CCOc1c(C(C)n2nc(C)c3c(N)ncnc32)cc(Cl)c(F)c1C1CNC(=O)O1` (stereo not drawn) [Example 357, 5-{3-[1-(4-amino-3-methyl-1H-pyrazolo[3,4-d]pyrimidin-1-yl)ethyl]-5-chloro-2-ethoxy-6-fluorophenyl}-1,3-oxazolidin-2-one], for which, where the note is “assay not specified”, the “relative activity among the four separated diastereomers (peaks 1-4)” value was “most active enantiomer”.

As for `CCOc1c(C(C)n2nc(C(F)F)c3c(N)ncnc32)cc(Cl)c(F)c1C1CN(C[C@@H](C)O)C1` (stereo partly drawn) [Example 155, (2R)-1-[3-(3-{1-[4-Amino-3-(difluoromethyl)-1H-pyrazolo[3,4-d]pyrimidin-1-yl]ethyl}-5-chloro-2-ethoxy-6-fluorophenyl)azetidin-1-yl]propan-2-ol], the IC50 was < 10 nM.

Turning to `CCOc1c(C(C)n2nc(C)c3c(N)ncnc32)cc(Cl)c(C#N)c1-c1cncc(S(C)(=O)=O)c1` (racemic) [Example 43, 4-[1-(4-amino-3-methyl-1H-pyrazolo[3,4-d]pyrimidin-1-yl)ethyl]-6-chloro-3-ethoxy-2-[5-(methylsulfonyl)pyridin-3-yl]benzonitrile], the IC50 is < 10 nM.

Consider `CCOc1c(C(C)n2ccc(=O)c3c(N)ncnc32)cc(Cl)c(C#N)c1-c1cncc(S(C)(=O)=O)c1` (racemic) [Example 46, 4-(1-(4-amino-5-oxopyrido[2,3-d]pyrimidin-8(5H)-yl)ethyl)-6-chloro-3-ethoxy-2-(5-(methylsulfonyl)pyridin-3-yl)benzonitrile], for which the IC50 is < 10 nM.

`COC(=O)N1CC(c2c(C#N)c(Cl)cc(C(C)n3nc(C)c4c(N)ncnc43)c2OC)C1` (single isomer, unassigned) [Example 289, Methyl 3-{3-[1-(4-amino-3-methyl-1H-pyrazolo[3,4-d]pyrimidin-1-yl)ethyl]-5-chloro-6-cyano-2-methoxyphenyl}azetidine-1-carboxylate]: the IC50 was < 10 nM.

`CCNC(=O)c1c(C)c(Cl)cc(C(C)n2nc(-c3cnc4[nH]ccc4c3)c3c(N)ncnc32)c1OCC` (racemic) [Example 91, 3-{1-[4-Amino-3-(1H-pyrrolo[2,3-b]pyridin-5-yl)-1H-pyrazolo[3,4-d]pyrimidin-1-yl]ethyl}-5-chloro-2-ethoxy-N-ethyl-6-methylbenzamide]: the IC50 was < 10 nM.

`CCNC(=O)c1c(C)c(Cl)cc(C(C)n2nc(C)c3c(N)ncnc32)c1-c1cc(F)cc(F)c1` (racemic) [Example 37, 6-[1-(4-amino-3-methyl-1H-pyrazolo[3,4-d]pyrimidin-1-yl)ethyl]-4-chloro-N-ethyl-3′,5′-difluoro-3-methylbiphenyl-2-carboxamide]: the IC50 was < 10 nM.

For the molecule `COc1c(C(C)n2nc(C)c3c(N)ncnc32)cc(Cl)c(C#N)c1C1CN(S(C)(=O)=O)C1` (single isomer, unassigned) [Example 285, 4-[1-(4-Amino-3-methyl-1H-pyrazolo[3,4-d]pyrimidin-1-yl)ethyl]-6-chloro-3-methoxy-2-[1-(methylsulfonyl)azetidin-3-yl]benzonitrile], the IC50 was < 10 nM.

As for `COc1c(C(C)n2nc(C)c3c(N)ncnc32)cc(Cl)c(C)c1-c1ccc(C(=O)NCCO)nc1` (stereo not drawn) [Example 23, 5-(3-(1-(4-amino-3-methyl-1H-pyrazolo[3,4-d]pyrimidin-1-yl)ethyl)-5-chloro-2-methoxy-6-methylphenyl)-N-(2-hydroxyethyl)picolinamide trifluoroacetate], the IC50 was < 10 nM.

Consider `CCOc1c(C(C)n2nc(C)c3c(N)ncnc32)cc(Cl)c(C)c1C1CN(C[C@@H](C)O)C1` (stereo partly drawn) [Example 97, (2R)-1-(3-{3-[1-(4-Amino-3-methyl-1H-pyrazolo[3,4-d]pyrimidin-1-yl)ethyl]-5-chloro-2-ethoxy-6-methylphenyl}azetidin-1-yl)propan-2-ol], for which the IC50 was < 10 nM.

With `COc1c(C(C)n2nc(C(F)F)c3c(N)ncnc32)cc(Cl)c(F)c1C1CN(CCO)C1` (stereo not drawn) [Example 74, 2-[3-(3-{1-[4-Amino-3-(difluoromethyl)-1H-pyrazolo[3,4-d]pyrimidin-1-yl]ethyl}-5-chloro-6-fluoro-2-methoxyphenyl)azetidin-1-yl]ethanol], the IC50 is < 10 nM.

Regarding `COc1c([C@H](C)n2nc(C)c3c(N)ncnc32)cc(Cl)c(C#N)c1C1CN(C[C@@H](C)O)C1` [Example 362, 4-((S)-1-(4-amino-3-methyl-1H-pyrazolo[3,4-d]pyrimidin-1-yl)ethyl)-6-chloro-2-(1-((R)-2-hydroxypropyl)azetidin-3-yl)-3-methoxybenzonitrile], the IC50 was < 10 nM.

Take `COc1c(C(C)n2nc(C)c3c(N)ncnc32)cc(Cl)c(C)c1C1CN(CC#N)C1` (single isomer, unassigned) [Example 105, (3-{3-[1-(4-Amino-3-methyl-1H-pyrazolo[3,4-d]pyrimidin-1-yl)ethyl]-5-chloro-2-methoxy-6-methylphenyl}azetidin-1-yl)acetonitrile]: the IC50 is < 10 nM.
